One compound from patent US20240316249A1, “INJECTION FORMULATION COMPOSITION FOR USE AS FILLER OR DRUG CARRIER THROUGH CLICK CHEMISTRY REACTION” (AJOU UNIVERSITY INDUSTRY-ACADEMIC COOPERATION FOUNDATION, priority 2018, published 2024) can be followed below.

Entries after “also recorded” stand apart in the source; their conditions may differ.

This series can be described thus: Amount of doxorubicin in tumor and organs after injection. Type of series: in vivo, mice. The method, then: To perform a pharmacokinetic experiment, mice were sacrificed on day 1, day 6, day 12, and day 18. Organs (tumors, the intestines, lungs, kidneys, liver, spleen, and heart) were immediately acquired and photographed (FIG. 12). To measure the amount of doxorubicin remaining in each organ, each organ was homogenized in a 0.3N HCl/70% ethanol solution at 25,000 rpm to 30,000 rpm using a T 10 basic ULTRA-TURRAX Homogenizer (IKA-Werke GmbH & Co., Staufen, Germany), followed by incubation at 37° C. for 15 minutes. Each uniformly mixed sample was mixed with the same volume of 40% ZnSO4 and a mobile phase, and incubated again at 37° C. for 15 minutes. When the incubation was completed, each sample was centrifuged at 2,000 rpm for 10 minutes, and the amount of doxorubicin contained in the supernatant was calculated by referring to the standard calibration curve. The amount of doxorubicin contained in each organ was measured by a UV-visible Spectrophotometer (V-770, JASCO Inc., Tokyo, Japan) (FIG. 13).

In the case of `COc1cccc2c1C(=O)c1c(O)c3c(c(O)c1C2=O)C[C@@](O)(C(=O)CO)C[C@@H]3O[C@H]1C[C@H](N)[C@H](O)[C@H](C)O1` [Dox, doxorubicin], for the setting “Dox repeat injection (0.1 mg Dox)”, the “occurrence of side effects due to the anticancer agent” value is given as “induces various side effects”. The “distribution of anticancer agent in tumor and organs” value is, setting by setting: (Dox repeat injection (0.1 mg Dox), compared to injection of doxorubicin alone (FIG. 13)) “a large amount of anticancer agent is present in a tumor; also recorded: a large amount of anticancer agent remains in various organs”; (single injection 0.4 mg Dox, day 1, 6, 12, 18 (FIG. 13)) “distributed more rapidly to various organs than a tumor”.
